The text below walks through data of patent publication US10602743B2, “Method of inducing drought/salt tolerance using Bacillus megaterium” (Marrone Bio Innovations, Inc., priority 2012, dated 2020).

Structures can show the parent of a compound that is named as a salt.

In one experiment the test system is Bacillus megaterium strain H491. The experiment can be described thus: Chemical sensitivity, Biolog Phenotypic Microarray. Type of experiment: cell-based.
Settings: not given
In the case of `Oc1cccc2cccnc12` [8-Hydroxyquinoline], the “H491 susceptible to compound” value is listed as “susceptible”. Same read-out and setting: under `CN1[C@@H]2CC[C@H]1C[C@@H](OC(=O)C(CO)c1ccccc1)C2` (stereo partly shown) [Atropine] stands “susceptible”. On the same count and under the same terms, under `O=C(O)CN(CCN(CC(=O)O)CC(=O)O)CC(=O)O` [EDTA] stands “susceptible”; under `O=C(O)CI` [Iodoacetic acid], “susceptible”.

Staying with this experiment, now noted: Biolog Phenotypic Microarray, 25° C.
For the compound `CC(C)NCC(O)COc1cccc2ccccc12` (racemic) [D,L-Propanolol], the “H491 susceptible to compound” value is recorded as “susceptible”. In the case of `O=C(O)CCCCC1CCSS1` (racemic) [D,L-Thioctic acid], the “H491 susceptible to compound” value was “susceptible”.

As for `O.c1cnc2c(c1)ccc1cccnc12` [1,10-Phenanthroline Monohydrate], the “H491 susceptible to compound” value is given as “susceptible”. As to `On1ccccc1=S` [1-Hydroxypyridine-2-thione], the “H491 susceptible to compound” value is listed as “susceptible”. `c1ccc(-c2ccccn2)nc1` [2,2′-Dipyridyl]: the “H491 susceptible to compound” value is “susceptible”. Same read-out and setting: the entry for `CC(C)c1nc2nc(N)nc(N)c2nc1C(C)C` [2,4-Diamino-6,7-diisopropylpteridine] is “susceptible”; for `O=[N+]([O-])c1ccc(O)c([N+](=O)[O-])c1` [2,4-Dintrophenol] it is “susceptible”. Regarding `O=[N+]([O-])c1ncc[nH]1` [2-Nitroimidazole], the “H491 susceptible to compound” value was “susceptible”. With `Oc1ccccc1-c1ccccc1` [2-Phenylphenol], the “H491 susceptible to compound” value is “susceptible”. `O=C(O)c1cc([N+](=O)[O-])cc([N+](=O)[O-])c1` [3,5-Dinitrobenzoic acid]: the “H491 susceptible to compound” value is reported as “susceptible”. On the same count and under the same terms, under `Nc1nc[nH]n1` [3-Amino-1,2,4-triazole] stands “susceptible”; under `Cc1cc(O)cc(C)c1Cl` [4-Chloro-3,5-dimethyl-phenol], “susceptible”. The same measure, in the same setting: under `O=c1cc(O)c2ccccc2o1` [4-Hydroxycoumarin] stands “susceptible”; under `Cc1ccc2c(Cl)cc(Cl)c(O)c2n1` [5,7-Dichloro-8-hydroxyquinaldine], “susceptible”; under `Oc1c(Cl)cc(Cl)c2cccnc12` [5,7-Dichloro-8-hydroxyquinoline], “susceptible”.

Turning to `Oc1c(I)cc(Cl)c2cccnc12` [5-Chloro-7-iodo-8-hydroxy-quinoline], the “H491 susceptible to compound” value is “susceptible”.

With `C[C@H]1O[C@@H](n2cc(F)c(=O)[nH]c2=O)[C@H](O)[C@@H]1O` [5-Fluoro-5′-deoxyuridine], the “H491 susceptible to compound” value is recorded as “susceptible”. For `O=C(O)c1[nH]c(=O)[nH]c(=O)c1F` [5-Fluoroorotic acid], the “H491 susceptible to compound” value is listed as “susceptible”.

Take `O=c1[nH]cc(F)c(=O)[nH]1` [5-Fluorouracil]: the “H491 susceptible to compound” value is listed as “susceptible”.

Consider `NC(=O)NN=Cc1ccc([N+](=O)[O-])o1` [5-Nitro-2-furaldehyde semicarbazone], for which the “H491 susceptible to compound” value was “susceptible”. Same read-out and setting: the entry for `O.Sc1ncnc2nc[nH]c12` [6-Mercaptopurine monohydrate] is “susceptible”; for `CCCCC(CC)CNC(=N)NC(=N)NCCCCCCNC(=N)NC(=N)NCC(CC)CCCC` (stereo not shown) [Alexidine] it is “susceptible”. Still for that read-out and setting: the entry for `CN(C)CCC=C1c2ccccc2CCc2ccccc21` [Amitriptyline] is “susceptible”. Still for that read-out and setting: the entry for `CC1(C)S[C@@H]2[C@H](NC(=O)[C@H](N)c3ccc(O)cc3)C(=O)N2[C@H]1C(=O)O` [Amoxicillin] is “susceptible”; for `[Cl][Sb]([Cl])[Cl]` [Antimony (III) chloride] it is “susceptible”. In the case of `CN[C@@H]1[C@@H](O[C@H]2O[C@H](CO)[C@@H](N)[C@H](O)[C@H]2O)OC2C[C@@H](N)[C@@H](O[C@H]3[C@H](O)[C@@H](O)[C@H](N)C[C@@H]3N)OC2[C@@H]1O` (stereo partly shown) [Apramycin], the “H491 susceptible to compound” value is reported as “susceptible”.

With `CC1(C)S[C@@H]2[C@H](NC(=O)[C@H](NC(=O)N3CCNC3=O)c3ccccc3)C(=O)N2[C@H]1C(=O)O` [Azlocillin], the “H491 susceptible to compound” value is listed as “susceptible”.

Consider `CC(C)(C)CC(C)(C)c1ccc(OCCOCC[N+](C)(C)Cc2ccccc2)cc1` [Benzethonium Chloride], for which the “H491 susceptible to compound” value was “susceptible”. On the same count and under the same terms, the entry for `OB(O)O` [Boric acid] is “susceptible”. On the same count and under the same terms, under `[Cl][Cd][Cl]` [Cadmium chloride] stands “susceptible”; under `Cn1c(=O)c2c(ncn2C)n(C)c1=O` [Caffeine], “susceptible”; under `O=C1C2CC=CCC2C(=O)N1SC(Cl)(Cl)Cl` (stereo not shown) [Captan], “susceptible”. For the compound `CC1(C)S[C@@H]2[C@H](NC(=O)C(C(=O)O)c3ccccc3)C(=O)N2[C@H]1C(=O)O` (stereo partly shown) [Carbenicillin], the “H491 susceptible to compound” value is listed as “susceptible”. The same measure, in the same setting: the entry for `N#CC(C#N)=NNc1cccc(Cl)c1` [Carbonyl-cyanide m-chlorophenylhydrazone] is “susceptible”; for `Cc1nnc(SCC2=C(C(=O)O)N3C(=O)[C@@H](NC(=O)Cn4cnnn4)[C@H]3SC2)s1` [Cefazolin] it is “susceptible”; for `CO[C@@]1(NC(=O)Cc2cccs2)C(=O)N2C(C(=O)O)=C(COC(N)=O)CS[C@@H]21` [Cefoxitin] it is “susceptible”. The same measure, in the same setting: the entry for `NC(=O)c1cc[n+](CC2=C(C(=O)O)N3C(=O)[C@@H](NC(=O)[C@@H](c4ccccc4)S(=O)(=O)[O-])[C@H]3SC2)cc1` [Cefsulodin] is “susceptible”; for `CC(=O)OCC1=C(C(=O)O)N2C(=O)[C@@H](NC(=O)Cc3cccs3)[C@H]2SC1` [Cephalothin] it is “susceptible”. The same measure, in the same setting: under `[Cl-].[Cs+]` [Cesium chloride] stands “susceptible”; under `O=C(O)CCCc1ccc(N(CCCl)CCCl)cc1` [Chlorambucil], “susceptible”. On to `CC(=O)O.CC(=O)O.NC(=N\CCCCCC/N=C(N)/N=C(\N)Nc1ccc(Cl)cc1)/N=C(\N)Nc1ccc(Cl)cc1` [Chlorhexidine diacetate], for which the “H491 susceptible to compound” value is “susceptible”.

Take `CN(C)CCCN1c2ccccc2Sc2ccc(Cl)cc21` [Chlorpromazine]: the “H491 susceptible to compound” value is reported as “susceptible”. Same read-out and setting: under `CCn1nc(C(=O)O)c(=O)c2cc3c(cc21)OCO3` [Cinoxacin] stands “susceptible”. Still for that read-out and setting: under `Cc1onc(-c2ccccc2Cl)c1C(=O)N[C@@H]1C(=O)N2[C@@H]1SC(C)(C)[C@@H]2C(=O)O` [Cloxacillin] stands “susceptible”. On the same count and under the same terms, under `[Cl-].[Cl-].[Co+2]` [Cobalt (II) chloride] stands “susceptible”; under `CN(C)c1ccc(C(=C2C=CC(=[N+](C)C)C=C2)c2ccc(N(C)C)cc2)cc1` [Crystal violet], “susceptible”; under `N[C@@H]1CONC1=O` [D-Cycloserine], “susceptible”. As to `N[C@H](CO)C(=O)O` [D-Serine], the “H491 susceptible to compound” value is listed as “susceptible”.

As to `CN(C)[C@@H]1C(O)=C(C(N)=O)C(=O)[C@@]2(O)C(O)=C3C(=O)c4c(O)ccc(Cl)c4[C@@H](O)[C@H]3C[C@@H]12` [Demeclocycline], the “H491 susceptible to compound” value was “susceptible”. Same read-out and setting: under `CN(C)C(=O)/N=N/C(=O)N(C)C` [Diamide] stands “susceptible”; under `CN(C)S(=O)(=O)N(SC(F)(Cl)Cl)c1ccccc1` [Dichlofluanid], “susceptible”; under `CCCCCCCCCCCC[N+](C)(C)C.[Br-]` [Dodecyltrimethyl ammonium bromide], “susceptible”. As for `CCCCCCCCCCCC[N+](C)(C)CCOc1ccccc1` [Domiphen bromide], the “H491 susceptible to compound” value is reported as “susceptible”. With `CCn1cc(C(=O)O)c(=O)c2cc(F)c(N3CCNCC3)nc21` [Enoxacin], the “H491 susceptible to compound” value is “susceptible”. In the case of `O=C(O)CN(CCOCCOCCN(CC(=O)O)CC(=O)O)CC(=O)O` [Ethylene Glycol-bis(b-Aminoethyl ether)-N,N,N′,N′-Tetraacetic Acid], the “H491 susceptible to compound” value was “susceptible”. Still for that read-out and setting: under `N#CC(C#N)=NNc1ccc(OC(F)(F)F)cc1` [FCCP] stands “susceptible”; under `O=C1OC(CN2CCOCC2)CN1/N=C/c1ccc([N+](=O)[O-])o1` (stereo not shown) [Furaltadone], “susceptible”. As to `CC(=O)O[C@H]1C[C@@]2(C)[C@@H](C[C@@H](O)[C@H]3[C@@]4(C)CC[C@@H](O)[C@@H](C)[C@@H]4CC[C@@]32C)/C1=C(\CCC=C(C)C)C(=O)O` [Fusidic acid, sodium salt], the “H491 susceptible to compound” value is recorded as “susceptible”. With `O=C(O)c1cc(O)c(O)c(O)c1` [Gallic acid], the “H491 susceptible to compound” value is on record as “susceptible”. On to `NCC(=O)NO` [Glycine hydroxamate], for which the “H491 susceptible to compound” value is recorded as “susceptible”. Turning to `N=C(N)N` [Guanidine hydrochloride], the “H491 susceptible to compound” value is recorded as “susceptible”.

With `Oc1c(Cl)cc(Cl)c(Cl)c1Cc1c(O)c(Cl)cc(Cl)c1Cl` [Hexachlorophene], the “H491 susceptible to compound” value is “susceptible”. Consider `N.N.N.N.N.N.[Cl-].[Cl-].[Cl-].[Co+3]` [Hexamine cobalt (III) chloride], for which the “H491 susceptible to compound” value is on record as “susceptible”. On the same count and under the same terms, under `NC(=O)NO` [Hydroxyurea] stands “susceptible”.

`CO[C@@H]1[C@@H](O[C@@H]2O[C@H](C)[C@@H](O[C@H]3C[C@@](C)(O)[C@@H](OC(=O)CC(C)C)[C@H](C)O3)[C@H](N(C)C)[C@H]2O)[C@@H](CC=O)C[C@@H](C)[C@@H](O)/C=C/C=C/C[C@@H](C)OC(=O)C[C@H]1OC(C)=O` [Josamycin]: the “H491 susceptible to compound” value was “susceptible”. As for `CC(C(=O)O)c1cccc(C(=O)c2ccccc2)c1` (stereo not shown) [Ketoprofen], the “H491 susceptible to compound” value is listed as “susceptible”.
